Measured values as given in patent US12331026B2 (NiKang Therapeutics, Inc., priority 2022, dated 2025).

Molecular target: T1, CDK2 (Homo sapiens, UniProt P24941)
T1 construct: endogenous in cells; host or cells: OVCAR3 cells
Test: Phospho-RB measurement in OVCAR3 cells (HTRF phospho-RB S807/811)
Format: cell-based
Conditions: phosphorylation of RB protein at S807/811, HTRF, 24 h compound treatment, 0.3 to 10,000 nM, read-out: pRb (uM)
Procedure, shortened: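 IC50 values come from four-parameter logistic fits of the DMSO-normalised 665/620 nm TR-FRET ratio for phospho-RB (S807/811). Antibody detection ran 4 h at room temperature.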

Row | IC50 | SMILES
1 | 3.86 µM | C[C@H]1CNC[C@H](C)N1c1nc(-c2cccc(NS(=O)(=O)c3c(F)cccc3F)c2F)c(-c2ccnc(NC3CC4(C3)CS(=O)(=O)C4)n2)s1 [Example 62, N-(3-(2-((2S,6S)-2,6-dimethylpiperazin-1-yl)-5-(2-((2,2-dioxido-2-thiaspiro[3.3]heptan-6-yl)amino)pyrimidin-4-yl)thiazol-4-yl)-2-fluorophenyl)-2,6-difluorobenzenesulfonamide]
2 | 0.39 µM | CC1CCC(C)N1c1nc(-c2cccc(NS(=O)(=O)c3c(F)cccc3F)c2F)c(-c2ccnc(NC3CC4(C3)CS(=O)(=O)C4)n2)s1 (stereo not shown) [Example 65, N-(3-(2-(2,5-dimethylpyrrolidin-1-yl)-5-(2-((2,2-dioxido-2-thiaspiro[3.3]heptan-6-yl)amino)pyrimidin-4-yl)thiazol-4-yl)-2-fluorophenyl)-2,6-difluorobenzenesulfonamide]
3 | 0.15 µM | CN1CC2CCC(C1)N2c1nc(-c2cccc(NS(=O)(=O)c3c(F)cccc3OC(F)F)c2F)c(-c2ccnc(NC3CC4(C3)CS(=O)(=O)C4)n2)s1 [Example 66, 2-(difluoromethoxy)-N-(3-(5-(2-((2,2-dioxido-2-thiaspiro[3.3]-heptan-6-yl)amino)pyrimidin-4-yl)-2-(3-methyl-3,8-diazabicyclo[3.2.1]octan-8-yl)thiazol-4-yl)-2-fluorophenyl)-6-fluorobenzenesulfonamide]
4 | 0.03 µM | C[C@H]1CN(C)C[C@H](C)N1c1nc(-c2cccc(NS(=O)(=O)c3c(F)cccc3C(F)(F)F)c2F)c(-c2ccnc(NC3CC4(C3)CS(=O)(=O)C4)n2)s1 [Example 70, N-(3-(5-(2-((2,2-dioxido-2-thiaspiro[3.3]heptan-6-yl)amino)-pyrimidin-4-yl)-2-((2S,6S)-2,4,6-trimethylpiperazin-1-yl)thiazol-4-yl)-2-fluorophenyl)-2-fluoro-6-(trifluoromethyl)benzenesulfonamide]
5 | 18.9 µM | CC1CC(C)N1c1nc(-c2cccc(NS(=O)(=O)c3c(F)cccc3F)c2F)c(-c2ccnc(NC3CC4(C3)CS(=O)(=O)C4)n2)s1 (stereo not shown) [Example 71, N-(3-(2-(2,4-dimethylazetidin-1-yl)-5-(2-((2,2-dioxido-2-thiaspiro[3.3]heptan-6-yl)amino)pyrimidin-4-yl)thiazol-4-yl)-2-fluorophenyl)-2,6-difluorobenzenesulfonamide]
6 | 0.061 µM | O=S1(=O)C[C@@H]2[C@H](C1)[C@H]2Nc1nccc(-c2sc(C3(C(F)F)CC3)nc2-c2cccc(NS(=O)(=O)c3c(F)cccc3C(F)(F)F)c2F)n1 [Example 72, N-(3-(2-(1-(difluoromethyl)cyclopropyl)-5-(2-(((1R,5S,6r)-3,3-dioxido-3-thiabicyclo[3.1.0]hexan-6-yl)amino)pyrimidin-4-yl)thiazol-4-yl)-2-fluorophenyl)-2-fluoro-6-(trifluoromethyl)benzenesulfonamide]
7 | 0.6 µM | O=S1(=O)C[C@@H]2[C@H](C1)[C@@H]2Nc1nccc(-c2sc(C34CCC(CC3)C4)nc2-c2cccc(NS(=O)(=O)c3c(F)cccc3F)c2F)n1 [Example 73, N-(3-(2-(bicyclo[2.2.1]heptan-1-yl)-5-(2-(((1R,5S,6s)-3,3-dioxido-3-thiabicyclo[3.1.0]hexan-6-yl)amino)pyrimidin-4-yl)thiazol-4-yl)-2-fluorophenyl)-2,6-difluorobenzenesulfonamide]
8 | 0.63 µM | COc1cccc(C(F)(F)F)c1S(=O)(=O)Nc1cccc(-c2nc(N3C4CCC3CN(C)C4)sc2-c2ccnc(NC3CC4(C3)CS(=O)(=O)C4)n2)c1F [Example 74, N-(3-(5-(2-((2,2-dioxido-2-thiaspiro[3.3]heptan-6-yl)amino)-pyrimidin-4-yl)-2-(3-methyl-3,8-diazabicyclo[3.2.1]octan-8-yl)thiazol-4-yl)-2-fluorophenyl)-2-methoxy-6-(trifluoromethyl)benzenesulfonamide]
9 | 0.85 µM | CN1CC2CCC(C1)N2c1nc(-c2cccc(NS(=O)(=O)c3c(OC(F)F)cccc3C(F)(F)F)c2F)c(-c2ccnc(NC3CC4(C3)CS(=O)(=O)C4)n2)s1 [Example 75, 2-(difluoromethoxy)-N-(3-(5-(2-((2,2-dioxido-2-thiaspiro[3.3]heptan-6-yl)amino)pyrimidin-4-yl)-2-(3-methyl-3,8-diazabicyclo[3.2.1]octan-8-yl)thiazol-4-yl)-2-fluorophenyl)-6-(trifluoromethyl)benzenesulfonamide]
10 | 0.87 µM | O=S1(=O)C[C@@H]2[C@H](C1)[C@@H]2Nc1nccc(-c2sc(C34CC5CC(CC(C5)C3)C4)nc2-c2cccc(NS(=O)(=O)c3c(F)cccc3F)c2F)n1 [Example 76, N-(3-(2-((3R,5R,7R)-adamantan-1-yl)-5-(2-(((1R,5S,6s)-3,3-dioxido-3-thiabicyclo[3.1.0]hexan-6-yl)amino)pyrimidin-4-yl)thiazol-4-yl)-2-fluorophenyl)-2,6-difluorobenzenesulfonamide]
11 | 0.24 µM | O=S1(=O)C[C@@H]2[C@H](C1)[C@H]2Nc1nccc(-c2sc(C34CC5CC(CC(C5)C3)C4)nc2-c2cccc(NS(=O)(=O)c3c(F)cccc3F)c2F)n1 [Example 77, N-(3-(2-((3R,5R,7R)-adamantan-1-yl)-5-(2-(((1R,5S,6r)-3,3-dioxido-3-thiabicyclo[3.1.0]hexan-6-yl)amino)pyrimidin-4-yl)thiazol-4-yl)-2-fluorophenyl)-2,6-difluorobenzenesulfonamide]
12 | 0.06 µM | C[C@H]1COC[C@H](C)N1c1nc(-c2cccc(NS(=O)(=O)c3c(F)cccc3C(F)(F)F)c2F)c(-c2ccnc(NC3CC4(C3)CS(=O)(=O)C4)n2)s1 [Example 79, N-(3-(2-((3S,5S)-3,5-dimethylmorpholino)-5-(2-((2,2-dioxido-2-thiaspiro[3.3]heptan-6-yl)amino)pyrimidin-4-yl)thiazol-4-yl)-2-fluorophenyl)-2-fluoro-6-(trifluoromethyl)benzenesulfonamide]
13 | 0.06 µM | O=S1(=O)CC2(CC(Nc3nccc(-c4sc(C5(C(F)F)CC5)nc4-c4cccc(NS(=O)(=O)c5c(F)cccc5C(F)(F)F)c4F)n3)C2)C1 [Example 80, N-(3-(2-(1-(difluoromethyl)cyclopropyl)-5-(2-((2,2-dioxido-2-thiaspiro[3.3]heptan-6-yl)amino)pyrimidin-4-yl)thiazol-4-yl)-2-fluorophenyl)-2-fluoro-6-(trifluoromethyl)benzenesulfonamide]
14 | 0.14 µM | O=S1(=O)CC2(CC(Nc3nccc(-c4sc(C5(C(F)F)CC5)nc4-c4cccc(NS(=O)(=O)c5c(F)cccc5OC(F)F)c4F)n3)C2)C1 [Example 81]
15 | 0.13 µM | O=S1(=O)CC2(CC(Nc3nccc(-c4sc(N5C6CCC5CN(C5CC5)C6)nc4-c4cccc(NS(=O)(=O)c5c(F)cccc5C(F)(F)F)c4F)n3)C2)C1 [Example 82, N-(3-(2-(3-cyclopropyl-3,8-diazabicyclo[3.2.1]octan-8-yl)-5-(2-((2,2-dioxido-2-thiaspiro[3.3]heptan-6-yl)amino)pyrimidin-4-yl)thiazol-4-yl)-2-fluorophenyl)-2-fluoro-6-(trifluoromethyl)benzenesulfonamide]
16 | 0.04 µM | O=S1(=O)CC2(CC(Nc3nccc(-c4sc(C5(C(F)F)CCC5)nc4-c4cccc(NS(=O)(=O)c5c(F)cccc5C(F)(F)F)c4F)n3)C2)C1 [Example 83, N-(3-(2-(1-(difluoromethyl)cyclobutyl)-5-(2-((2,2-dioxido-2-thiaspiro[3.3]heptan-6-yl)amino)pyrimidin-4-yl)thiazol-4-yl)-2-fluorophenyl)-2-fluoro-6-(trifluoromethyl)benzenesulfonamide]
